From US20170055529A1, “BROAD SPECTRUM WEED CONTROL IN FLOODED RICE BY IN-WATER APPLICATION OF AUXIN HERBICIDES” (priority 2015, published 2017)
Like-named read-outs stand apart in the source and are kept apart here.

Legend:
Format in all cases: in vivo
[1] = test system: barnyardgrass (Echinochloa crus-galli), small-flower flatsedge (Cyperus difformis), Japanese bulrush (Schoenoplectus juncoides) and monochoria (Monochoria …); assay: In-water application, weed efficacy (summary statement); conditions: application rate of about 35 to about 280 g ae/ha
rice = assay: In-water application, crop safety (summary statement)
[2] = test system: MOOVA = Monochoria vaginalis (monochoria); assay: Greenhouse in-water herbicidal activity (small pots); conditions: 35 g ae/ha (as headed) in-water
Source text: (§1) Weed seeds of the desired test plant species were planted in puddled soil (mud) prepared by mixing a non-sterilized mineral soil (approximately 50 percent silt, 26 percent clay, and 24 percent sand, with a pH of about 7.6 and an organic matter content of about 2.9 percent) and water at a 1:1 volumetric ratio. The prepared mud was dispensed in 365 milliliter (mL) aliquots into 16-ounce (oz.) non-perforated plastic pots with a surface area of 86.59 square centimeters (cm^2) leaving a headspace of 3 centimeters (cm) in each pot. Mud was allowed to dry overnight prior to planting or transplanting. Rice seeds were planted in Sun Gro® MetroMix® 360 planting mixture, which typically has a pH of 6.0 to 6.8 and an organic matter content of about 30 percent, in plastic plug trays. Seedlings at the second or third leaf stage of growth were transplanted into 840 mL of mud contained in 32-oz. non-perforated plastic pots with a surface area of 86.59 cm^2 four days prior to herbicide application. The paddy was created by filling the headspace of the pots with 2.5 to 3 cm of water. When required to ensure good germination and healthy plants, a fungicide treatment and/or other chemical or physical treatment was applied. The plants were grown for 4-22 days (d) in a greenhouse with an approximate 14-hour (h) photoperiod which was maintained at about 29° C. during the day and 26° C. during the night. Nutrients were added as Osmocote® (19:6:12, Nitrogen:Phosphorus:Potassium (N:P:K)+minor nutrients) at 2 g per 16 oz. pot and 4 g per 32 oz. pot. Water was added on a regular basis to maintain the paddy flood, and supplemental lighting was provided with overhead metal halide 1000-Watt lamps as necessary. The plants were used for testing when they reached the second or third true leaf stage.
(§2) Triclopyr triethylammonium (as Grandstand® R, 359.5 grams acid equivalent per liter (g ae/L)); fluroxypyr methylheptyl ester (meptyl or MHE, as Starane™, 179.8 g ae/L); 2,4-dichlorophenoxyacetic acid dimethylammonium (2,4-D DMA, as Weedar® 64, 455.4 g ae/L); and penoxsulam (as Grasp® SC, 239.7 grams active ingredient per liter (g ai/L) were used. Measured amounts of formulated compounds were placed in individual 120 mL glass vials and were dissolved in 40 mL of an aqueous mixture containing 1.25% volume per volume (v/v) Agri-Dex® crop oil concentrate. Generally, multiple concentrations were tested utilizing the same stock solution. Applications were made by injecting an appropriate amount of the application solution into the aqueous layer of the paddy. Control plants were treated in the same manner with the solvent blank.
(§3) The treated plants and control plants were placed in a greenhouse as described above and water was added as needed to maintain a paddy flood. After approximately 3 weeks the condition of the test plants, compared with that of the untreated plants, was determined visually and scored on a scale of 0 to 100 percent where 0 corresponds to no injury or growth reduction and 100 corresponds to complete kill.

[3] = test system: ECHCG = Echinochloa crus-galli (barnyardgrass); assay: as above; conditions: 35 g ae/ha (as headed) in-water
Source text: as §1, §2, §3

[4] = test system: SCPJU = Schoenoplectus juncoides (Japanese bulrush); assay: as above; conditions: 35 g ae/ha (as headed) in-water
Source text: as §1, §2, §3

[5] = test system: CYDPI = Cyperus difformis (small-flower flatsedge); assay: as above; conditions: 35 g ae/ha (as headed) in-water
Source text: as §1, §2, §3

[6] = test system: MOOVA = Monochoria vaginalis (monochoria); assay: Greenhouse in-water herbicidal activity (large pots); conditions: Pontederia vaginalis, 744 h, read-out: Percent (%) Visual Injury Ratings - 31 DAA, MOOVA
Description: (§4) Weed seeds or nutlets of the desired test plant species were planted in puddled soil (mud) prepared by mixing shredded topsoil and deionized (DI) water in a 1:1 ratio in a standard cement mixer. […] Osmocote® (17:6:10 N:P:K; 0.5 teaspoon) was added to the bottom of a container. The container is a high-density polyethylene (HDPE) round container (4.163 L (1.1 gallon), 15 cm high×20.55 cm diameter; for treatment purposes, the surface area is calculated as 331 cm^2 with 1 hectare equivalent to 10^8 cm^2). The mud mixture (2,750 mL) was added to the container filling it half full. Stakes were placed horizontally in each container to create separate areas for which to plant each different plant species. Water was added on a regular basis to maintain the paddy flood, and supplemental lighting was provided with overhead metal halide 1000-Watt lamps as necessary.
(§5) Once the plants had reached the proper size (the growth stage of the various species ranged from 2 to 4 leaves), the containers were flooded with city water to a depth of 3 cm submerging the plants 80-100%. The outside of each container was measured and marked at a 3-cm line with a black permanent marker to eliminate water level variability during the trial period. Water was added daily to maintain this water depth. Triclopyr triethylammonium (as Garlon® 3 A, 360 g ae/L); triclopyr butoxyethyl ester (as Garlon® 4, 480 g ae/L); fluroxypyr methylheptyl ester (meptyl or MHE, as Starane® Ultra, 333 g ae/L); fluroxypyr acid (850 grams acid equivalent per kilogram (g ae/kg)); 2,4-dichlorophenoxyacetic acid dimethylammonium (2,4-D DMA, as Weedar® 64 EC, 456 g ae/L); 2,4-dichlorophenoxyacetic acid 2-ethylhexyl ester (2,4-D 2-EHE, as Agri Star®, 456 g ae/L); clopyralid olamine (as Stinger®, 360 g ae/L); and penoxsulam (as Grasp® SC, 240 g ai/L) were used. Each herbicide treatment for each pot was mixed in water (80 mL) and applied directly into the paddy water at rates adjusted to the surface area. The dry formulations were pre-weighed based on the rate of the active ingredient to be applied on a per unit area basis, placed in 30 mL vials, and capped. Granules were spread onto the top of the water in each pot and dispersed throughout the water. Treatments were replicated 3 times.
(§6) The treated plants and control plants were placed in a greenhouse as described above and water was added as needed to maintain a flood depth of 3 cm. […]

[7] = test system: CYPDI = Cyperus difformis (small-flower flatsedge); assay: as above; conditions: Cyperus difformis, 744 h, read-out: Percent (%) Visual Injury Ratings - 31 DAA, CYPDI
Description: as §4, §5, §6

[8] = test system: ECHCG = Echinochloa crus-galli (barnyardgrass); assay: as above; conditions: 744 h, read-out: Percent (%) Visual Injury Ratings - 31 DAA, ECHCG
Description: as §4, §5, §6

[9] = test system: ORYSP = Oryza sativa (transplanted paddy rice); assay: Greenhouse in-water application (large pots), crop injury
Description: as §4, §5, §6

[10] = application rates of less than or equal to 280 g ae/ha
[11] = 35 g ai/ha in-water, greenhouse large pots, 31 DAA
[12] = 280 g ae/ha in-water, greenhouse large pots, 31 DAA
[13] = 560 g ae/ha in-water, greenhouse large pots, 31 DAA
[14] = 1120 g ae/ha in-water, greenhouse large pots, 31 DAA

## O=C(O)COc1ccc(Cl)cc1Cl [2,4-D, (2,4-dichlorophenoxy)acetic acid]
[1]
  efficacy on several commercially relevant weeds: highly efficacious
rice; [10]
  crop safety exhibited by rice: little to no crop injury

## COc1cnc(OC)n2nc(NS(=O)(=O)c3c(OCC(F)F)cccc3C(F)(F)F)nc12 [Penoxsulam (Grasp ® SC), penoxsulam]
[2]
  Percent (%) Visual Injury Ratings - 20 DAA, MOOVA: 99%
[3]
  Percent (%) Visual Injury Ratings - 20 DAA, ECHCG: 99%
[4]
  Percent (%) Visual Injury Ratings - 20 DAA, SCPJU: 100%
[5]
  Percent (%) Visual Injury Ratings - 20 DAA, CYDPI: 100%
[6]; [11]
  pest or weed control at 35 g/ha: 100%
[7]; [11]
  pest or weed control at 35 g/ha: 99%
[8]; [11]
  pest or weed control at 35 g/ha: 100%

## O=C(O)c1nc(Cl)ccc1Cl [clopyralid, 3,6-dichloro-2-pyridinecarboxylic acid]
[1]
  efficacy on several commercially relevant weeds: highly efficacious
rice; [10]
  crop safety exhibited by rice: little to no crop injury

## CCCCC(CC)COC(=O)COc1ccc(Cl)cc1Cl (stereo not shown) [2,4-D 2-ethylhexyl ester (Agri Star ®)]
[6]; [12]
  pest or weed control at 280 g/ha: 100%
[6]; [13]
  pest or weed control at 560 g/ha: 100%
[6]; [14]
  pest or weed control at 1120 g/ha: 100%
[7]; [12]
  pest or weed control at 280 g/ha: 100%
[7]; [13]
  pest or weed control at 560 g/ha: 100%
[7]; [14]
  pest or weed control at 1120 g/ha: 100%
[8]; [12]
  pest or weed control at 280 g/ha: 35%
[8]; [13]
  pest or weed control at 560 g/ha: 65%
[8]; [14]
  pest or weed control at 1120 g/ha: 87%

## Nc1c(Cl)c(F)nc(OCC(=O)O)c1Cl [Fluroxypyr acid, 2-[(4-amino-3,5-dichloro-6-fluoro-2-pyridinyl)oxy]-acetic acid]
[6]; [12]
  pest or weed control at 280 g/ha: 98%
[6]; [14]
  pest or weed control at 1120 g/ha: 100%
[7]; [12]
  pest or weed control at 280 g/ha: 100%
[7]; [14]
  pest or weed control at 1120 g/ha: 100%
[8]; [12]
  pest or weed control at 280 g/ha: 27%
[8]; [13]
  pest or weed control at 560 g/ha: 28%
[8]; [14]
  pest or weed control at 1120 g/ha: 45%
[1]
  efficacy on several commercially relevant weeds: highly efficacious
rice; in vivo
  crop safety exhibited by rice: little to no crop injury

## O=C(O)c1nc(Cl)ccc1Cl [Clopyralid olamine (Stinger ®), 2-hydroxyethanaminium 3,6-dichloro-2-pyridinecarboxylate]
[6]
  pest or weed control at 280 g/ha: 10%
  pest or weed control at 560 g/ha: 18%
  pest or weed control at 1120 g/ha: 23%
[7]
  pest or weed control at 280 g/ha: 7%
  pest or weed control at 560 g/ha: 53%
  pest or weed control at 1120 g/ha: 59%
[8]
  pest or weed control at 280 g/ha: 17%
  pest or weed control at 560 g/ha: 4%
  pest or weed control at 1120 g/ha: 5%
[9]; 280 g ae/ha in-water
  Percent (%) Visual Injury Ratings - 31 DAA, ORYSP: 0%
[9]; 560 g ae/ha in-water
  Percent (%) Visual Injury Ratings - 31 DAA, ORYSP: 0%
[9]; 1120 g ae/ha in-water
  Percent (%) Visual Injury Ratings - 31 DAA, ORYSP: 0%

## O=C(O)COc1nc(Cl)c(Cl)cc1Cl [triclopyr, 2-[(3,5,6-trichloro-2-pyridinyl)oxy]acetic acid]
[1]
  efficacy on several commercially relevant weeds: highly efficacious
rice; [10]
  crop safety exhibited by rice: little to no crop injury

## CCCCOCCOC(=O)COc1nc(Cl)c(Cl)cc1Cl [Triclopyr butoxyethyl ester (Garlon ® 4), 2-butoxyethyl 2[(3,5,6-trichloro-2-pyridinyl)oxy]acetate]
[6]; [12]
  pest or weed control at 280 g/ha: 100%
[6]; [13]
  pest or weed control at 560 g/ha: 100%
[6]; [14]
  pest or weed control at 1120 g/ha: 100%
[7]; [12]
  pest or weed control at 280 g/ha: 100%
[7]; [13]
  pest or weed control at 560 g/ha: 100%
[7]; [14]
  pest or weed control at 1120 g/ha: 100%
[8]; [12]
  pest or weed control at 280 g/ha: 60%
[8]; [13]
  pest or weed control at 560 g/ha: 78%
[8]; [14]
  pest or weed control at 1120 g/ha: 95%
[9]; 280 g ae/ha in-water
  Percent (%) Visual Injury Ratings - 31 DAA, ORYSP: 3%
[9]; 560 g ae/ha in-water
  Percent (%) Visual Injury Ratings - 31 DAA, ORYSP: 22%
[9]; 1120 g ae/ha in-water
  Percent (%) Visual Injury Ratings - 31 DAA, ORYSP: 72%
